Reference: US10125365B2, “Micro-RNAs and compositions comprising same for the treatment and diagnosis of serotonin-, adrenalin-, noradrenalin-, glutamate-, and corticotropin-releasing hormone- associated medical conditions” (Yeda Research and Development Co. Ltd., priority 2014, dated 2018)

Assays:
Htr1a 3′UTR = assay: Luciferase reporter assay, Htr1a 3′UTR; assay type: cell-based, mouse; conditions: for repression of Htr1a 3′UTR (luciferase): HEK293T cells, miR over-expressing vector vs empty vector; for seed match through which Htr1a 3′UTR is repressed: Htr1a miR-135 seed matches mutated individually or both
Method: (§1) 3′UTR sequences of Slc6a4, Htr1a, MaoA and Tph2 were PCR amplified from mouse genomic DNA, or total brain cDNA. 3′UTR PCR fragments were ligated into pGEM-T easy vector (Promega) according to the manufacturer's guidelines, and further subcloned into a single NotI site at the 3′ end of luciferase in the Psicheck2 reporter plasmid (Promega). […] Cloning orientation was verified by diagnostic cuts and by sequencing.
(§2) HEK293T cells were grown on poly-L-lysine in 48-well format to a 70-85% confluence and transfected using Polyethyleneimine with the following plasmids: 5 ng of Psicheck2-3′UTR plasmid and 215 ng of over-expressing vector for a specific miRNA, or empty-miR-vec over-expression plasmids. 24 hours following transfection cells were lysed and luciferase reporters activity were assayed as previously described [Chen A. et al. Mol Endocrinol (2005) 19: 441-58]. Renilla luciferase values were normalized to control firefly luciferase levels (transcribed from the same vector but not affected by 3′UTR tested) and averaged across six well repetitions per condition.
3′UTR sequence of Htr1a was PCR amplified from mouse genomic DNA. 3′UTR PCR fragments were ligated into pGEM-T easy vector (Promega) according to the manufacturer's guidelines, and further subcloned into a single NotI site at the 3′ end of luciferase in the Psicheck2 reporter plasmid (Promega). Cloning orientation was verified by diagnostic cuts and by sequencing.
as §2, with “plasmids:” for “plasmids: 5 ng of”, “Psicheck2-3′UTR plasmid, pre-mmu-miR-182 over-expression in pEGFP” for “Psicheck2-3′UTR”, “plasmid” for “plasmid and 215 ng of over-expressing vector for a specific miRNA,”, “pEGFP plasmid alone (clontech).” for “empty-miR-vec over-expression plasmids.”
3′ UTRs sequences of Slc6a4 and Htr1a were PCR amplified from mouse genomic DNA. 3′UTRs PCR fragments were ligated into pGEM-T easy vector (Promega) according to the manufacturer's guidelines, and further sub-cloned into a single NotI site at the 3′ end of luciferase in the psiCHECK-2 reporter plasmid (Promega). […] Cloning orientation was verified by diagnostic cuts and sequencing.
Twenty-four hours following transfection cells were lysed and luciferase reporter activities were assayed as previously described (Kuperman et al., 2011). […]

Slc6a4 3′UTR = assay: Luciferase reporter assay, Slc6a4 3′UTR; assay type: cell-based, mouse; conditions: HEK293T cells, miR over-expressing vector vs empty vector
Method: as §1, §2
3′ UTRs sequences of Slc6a4 and Htr1a were PCR amplified from mouse genomic DNA. 3′UTRs PCR fragments were ligated into pGEM-T easy vector (Promega) according to the manufacturer's guidelines, and further sub-cloned into a single NotI site at the 3′ end of luciferase in the psiCHECK-2 reporter plasmid (Promega). […]

miR-135a = assay: Real time PCR of miR-135a in raphe nucleus after antidepressant treatment; assay type: in vivo, mouse; conditions: mice, 20 mg/kg i.p., acute or chronic administration
Method: Mice received i.p. injection of tricyclic-Imipramine, or SSRI-Fluoxetine, or NRI-Reboxetine (20 mg/kg in saline) or saline.
Blunted 14G syringes were used to extract the RN region from 3 mm slices removed from the matrix.
(§3) For behavioral testing, mice were injected with 20 mg/kg SSRI i.p. 30 minutes prior to the test.
Samples were then analyzed using SYBR® Green

mice [1] = assay: Tail suspension test; assay type: in vivo, mouse; conditions: miR135b KD and control KD mice
Method: The tail suspension test was performed in the TSE Tail Suspension Monitor (TSE Systems, Bad Homburg, Germany). Each mouse was taped by the tip of its tail, and suspended from the force sensor for 10 minutes. Time spent immobile and time spent struggling were calculated and recorded by the software based on pre-set thresholds.

miR-19a/b = miR-19a/b levels in prefrontal cortex after Reboxetine; assay type: in vivo, mouse; conditions: mice
Excerpt: These animals will be also tested for anxiety like behavior, locomotor activity and memory performance. Furthermore, the levels of expression of miR-19a and miR-19b are examined in different regions of interest (E.G the hippocampus, amygdala and forebrain) following an acute and chronic systemic treatment with the Noradrenaline reuptake inhibitor Reboxetine in WT mice.
The physiological link between miRNA-19 and Adrb1 was studied by assessing the level of miR-19a/b in the prefrontal cortex (PFC) of mice that were injected with Reboxetine, a noradrenalin reuptake inhibitor (NRI), either acutely or chronically (FIGS. 12A-D).

miR-135b = assay: Real time PCR of miR-135b in raphe nucleus after antidepressant treatment; conditions: mice, 20 mg/kg i.p., acute or chronic administration
mice [2] = assay: Social avoidance test after chronic social defeat; assay type: in vivo, mouse; conditions: mice exposed to social defeat, chronic treatment vs saline
Method: Mice were subjected to a social defeat protocol as previously described (Elliott et al., 2010). Briefly, mice were placed in a home cage of an aggressive ICR mouse where they physically interacted for five minutes. […] Perforated clear Plexiglas dividers were then placed between the animals and the mice remained in the same cage for 24 hours to allow sensory contact. The procedure was then repeated with an unfamiliar ICR mouse for 10 consecutive days.
as §3
Social avoidance test: In the social avoidance test, mice were placed in a 15 cm×35 cm arena with a small 15 cm×8 cm neighboring chamber separated by a divider with small open slits allowing full sensory contact. The tested mice were allowed to habituate to the arena for three minutes, and then an unfamiliar ICR mouse was placed in the neighboring chamber for another three minutes. Time spent near the divider was quantified using video tracking by Ethovision software (Noldus, Wageningen, Netherlands). Interaction ratio was calculated by dividing the time the mice spent in a defined area near the unfamiliar ICR to the time the mice spent in the same area during habitation, and multiplied by 100.

Row | Molecule | repression of Htr1a 3′UTR (luciferase) (Htr1a 3′UTR) | seed match through which Htr1a 3′UTR is repressed (Htr1a 3′UTR) | repression of Slc6a4 3′UTR (luciferase) (Slc6a4 3′UTR) | miR-135a expression levels in the RN (miR-135a) | also measured
1 | miR-135b: mature miR-135b, Accession No. MIMAT0000758 (SEQ ID NO: 62); tested via overexpressing vector (SEQ ID NO: 211) (UAUGGCUUUUCAUUCCUAUGUGA; listed as Homo sapiens) | approximately 50% | via both predicted sites | approximately 50% |  | 
2 | CNCCC(Oc1ccc(C(F)(F)F)cc1)c1ccccc1 (stereo not drawn) [Fluoxetine] |  |  |  | robust increase | immobility time, tail suspension test, treated vs basal (mice [1]): decrease in immobility time
3 | miR-135a: mature miR-135a, Accession No. MIMAT0000428 (SEQ ID NO: 61); tested via overexpressing vector (SEQ ID NO: 210) (UAUGGCUUUUUAUUCCUAUGUGA; listed as Homo sapiens) | approximately 30% | via the distal and not the proximal seed match | approximately 30% |  | 
4 | CCOc1ccccc1OC(c1ccccc1)C1CNCCO1 (stereo not drawn) [Reboxetine] |  |  |  | no differences | miR-19 a/b levels in the PFC, acute administration (miR-19a/b; acute): down regulated; miR-19 a/b levels in the PFC, chronic administration (miR-19a/b; chronic): upregulated
5 | CN(C)CCCN1c2ccccc2CCc2ccccc21 [Imipramine] |  |  |  |  | miR-135a expression levels in the RN (miR-135a; 20 mg/kg): increased; miR-135a expression levels in the RN (miR-135a; listed as imipramine, 20 mg/kg): significantly increased; miR-135b expression levels in the RN (miR-135b): increased; social avoidance (interaction ratio) (mice [2]): not those who received imipramine developed social avoidance
